One data set concerns the target Caspase-8 (Homo sapiens, UniProt Q14790). Kind of data set: Caspase-8 enzyme inhibition (Ki). It is filed as biochemical. The following applies: substrate Ac-DEVD-pNA 80 μM, 37° C. The protocol:
(§1) Ki values for test compounds with the various caspases were obtained by the method of Margolin et al. (J. Biol. Chem., 272 pp. 7223-7228 (1997)). Assays were performed in 10 mM Tris (Sigma Corp, St Louis Mo.) pH 7.5, 1 mM Dithiothreitol (DTT, Research Organic INC, Cleveland, Ohio) and 0.1% CHAPS (Pierce, Rockford Ill.) at 37° C. For caspase-3, a solution of 8% glycerol was added to the assay buffer to improve enzyme stability. A 65 μL aliquot of the assay buffer and 5 μL aliquot of the appropriate dilutions of inhibitor in DMSO where pipetted into a 96 well plate, treated with 10 μL of caspase, then diluted in assay buffer (0.5-40 nM active protein by active site titration). A control containing DMSO but no compound was included for each determination. The plates were then incubated for 15 minutes at 37° C., before addition of the appropriate substrate (20 μL, final concentration 1-4×KM, final assay volume 100 μL) to initiate the reaction. Reaction rates were measured at 37° C. either by following the time dependant increase in absorbance at 405 nm (for the pNA substrates) or in fluorescence (Ex 390, Em 460) (for the AMC substrates). The rates obtained were plotted against inhibitor concentration and the data fit to the Morrison tight-binding equation for competitive inhibitors (Morrison, J. F., Biochem. Biophys. Acta, 185 pp. 269-286 (1969)). The substrates used for the individual assays were as follows:
Caspase-8 Ac-DEVD-pNA (Bachem, King of Prussia, Pa.) (final concentration in assay 80 μM).

Another data set has as its target T1, Caspase-4 (Homo sapiens, UniProt P49662).
T1 sequence (P49662 81-270 limits assumed): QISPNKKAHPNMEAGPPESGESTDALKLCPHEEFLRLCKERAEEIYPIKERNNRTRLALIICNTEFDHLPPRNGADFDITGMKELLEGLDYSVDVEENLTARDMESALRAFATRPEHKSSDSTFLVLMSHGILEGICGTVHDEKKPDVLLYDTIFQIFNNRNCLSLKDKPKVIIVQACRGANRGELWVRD
T1 sequence (P49662 290-377 limits assumed): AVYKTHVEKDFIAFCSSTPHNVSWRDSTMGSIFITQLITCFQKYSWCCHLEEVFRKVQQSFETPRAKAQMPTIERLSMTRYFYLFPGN
Kind of data set: Caspase-4 enzyme inhibition (Ki). It is filed as biochemical. The following applies: substrate Ac-WEHD-AMC 20 μM, 37° C. The protocol:
as §1, with “The substrates used for the individual assays were as follows:” left out

For another data set, the target named is T2, Caspase-3 (Homo sapiens, UniProt P42574).
T2 sequence (P42574 29-175 limits assumed): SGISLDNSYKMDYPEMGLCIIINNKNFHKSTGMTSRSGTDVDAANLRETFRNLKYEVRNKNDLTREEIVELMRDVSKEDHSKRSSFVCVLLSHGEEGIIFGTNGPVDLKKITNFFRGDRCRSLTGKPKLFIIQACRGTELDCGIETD
T2 sequence (P42574 176-277 limits assumed): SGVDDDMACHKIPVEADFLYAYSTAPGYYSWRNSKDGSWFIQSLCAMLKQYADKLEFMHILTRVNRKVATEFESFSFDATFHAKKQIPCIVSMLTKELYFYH
Kind of data set: Caspase-3 enzyme inhibition (Ki). As to conditions: substrate Ac-DEVD-pNA 60 μM, 8% glycerol in buffer, 37° C. It is filed as biochemical. The protocol: as §1
Caspase-3 Ac-DEVD-pNA (Bachem, King of Prussia, Pa.) (final concentration in assay, 60 μM)

Data set [1] can be described thus: In vivo rat clearance assay (i.v.). The following applies: plasma, iv, i.v. via jugular vein. As for the experimental part:
Cannulations of the jugular and carotid vessels of rats under anesthesia are performed one day prior to the pharmacokinetic study. M. J. Free, R. A. Jaffee; ‘Cannulation techniques for the collection blood and other bodily fluids’; in: Animal Models; p. 480-495; N. J. Alexander, Ed.; Academic Press; (1978). Drug (10 mg/mL) is administered via the jugular vein in a vehicle usually consisting of: propylene glycol/saline, containing 100 mM sodium bicarbonate in a 1:1 ratio. Animals are dosed with 10-20 mg drug/kg and blood samples are drawn at 0, 2, 5, 7, 10, 15, 20, 30, 60, and 90 minutes from an indwelling carotid catheter. The blood is centrifuged to plasma and stored at −20° C. until analysis. Pharmacokinetic analysis of data is performed by non-linear regression using standard software such as RStrip (MicroMath Software, UT) and/or Pcnonlin (SCI Software, NC) to obtain clearance values.
Rat plasma is extracted with an equal volume of acetonitrile (containing 0.1% TFA). Samples are then centrifuged at approximately 1,000×g and the supernatant analyzed by gradient HPLC. A typical assay procedure is described below.
200 μL of plasma is precipitated with 200 μL of 0.1% trifluoroacetic acid (TFA) in acetonitrile and 10 μL of a 50% aqueous zinc chloride solution, vortexed then centrifuged at ^˜1000×g and the supernatant collected and analyzed by HPLC.
A standard curve is run at 20, 10, 5, 2 and 1 μg/mL concentrations.

The next data set concerns the target T3, Caspase-1 (Homo sapiens, UniProt P29466).
T3 sequence (P29466 120-297 limits assumed): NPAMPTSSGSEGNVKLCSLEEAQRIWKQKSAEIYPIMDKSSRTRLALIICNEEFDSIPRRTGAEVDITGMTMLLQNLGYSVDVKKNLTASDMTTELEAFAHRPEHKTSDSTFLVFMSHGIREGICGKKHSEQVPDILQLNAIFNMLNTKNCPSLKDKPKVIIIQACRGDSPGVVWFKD
T3 sequence (P29466 317-404 limits assumed): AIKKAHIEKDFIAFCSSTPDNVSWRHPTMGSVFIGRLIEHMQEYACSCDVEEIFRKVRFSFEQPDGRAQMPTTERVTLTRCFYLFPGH
Kind of data set: Caspase-1 enzyme inhibition (Ki). As to conditions: substrate Suc-YVAD-pNA 80 μM, 37° C., pH 7.5. It is filed as biochemical. In a few lines: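 Ki obtained by fitting rate versus inhibitor concentration to the Morrison tight-binding equation for competitive inhibitors, with pNA release read at 405 nm at 37 °C. Substrate Suc-YVAD-pNA (80 μM final) added after 15 min enzyme–inhibitor preincubation in Tris pH 7.5 buffer with DTT and CHAPS.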

These results are taken from US20030232986A1, “Inhibitors of caspases” (Vertex Pharmaceuticals Incorporated, priority 1998, published 2003).

Sequence of Caspase-8 (Q14790 217-374 limits assumed): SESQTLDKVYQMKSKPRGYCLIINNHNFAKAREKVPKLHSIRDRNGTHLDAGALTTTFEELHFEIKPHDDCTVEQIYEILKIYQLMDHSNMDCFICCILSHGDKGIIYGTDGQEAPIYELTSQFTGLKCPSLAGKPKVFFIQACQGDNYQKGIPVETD
Sequence of Caspase-8 (Q14790 385-479 limits assumed): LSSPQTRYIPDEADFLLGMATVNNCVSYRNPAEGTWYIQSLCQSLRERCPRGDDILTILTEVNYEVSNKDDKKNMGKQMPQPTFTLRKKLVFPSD

Turning to `C[C@H](NC(=O)c1ccc(N)c(Cl)c1)C(=O)N1CCC[C@H]1C(=O)N[C@H](C=O)CC(=O)O` [Example 122b, 3-({-[2-(4-Amino-3-chloro-benzoylamino)-propionyl]-pyrrolidine-2-carbonyl}-amino)-4-oxo-butyric acid], the inhibition constant (Ki) was 10 to 1000 nM at Caspase-8, less than 10 nM on Caspase-4, greater than 1000 nM at Caspase-3 and less than 10 nM on Caspase-1. For the same compound, the clearance in data set [1] is 50 to 80 mL/min/kg.

Take `COc1c(C)cc(C(=O)N[C@@H](C)C(=O)N2CCC[C@H]2C(=O)N[C@H](C=O)CC(=O)O)cc1C` [Example 122d, 3-({1-[2-(4-Methoxy-3,5-dimethyl-benzoylamino)-propionyl]-pyrrolidine-2-carbonyl}-amino)-4-oxo-butyric acid]: the Ki on Caspase-8 was greater than 1000 nM; at Caspase-4 it was less than 10 nM; on Caspase-3, greater than 1000 nM; on Caspase-1 it was less than 10 nM. For the same compound, the clearance in data set [1] is 50 to 80 mL/min/kg.

For orientation: Ki means a dissociation constant, usually derived from enzyme kinetics or from competition with a known ligand. Read a low Ki as tighter binding. By clearance is commonly meant the volume of plasma or blood freed of the substance per unit of time. Lower therefore signals a low capacity for elimination.
